Source: publication PMC6597546, “Identification of a potent benzoxaborole drug candidate for treating cryptosporidiosis” (Nature Communications, 2019)
Values joined by “and” are separate entries in the source; they are usually repeats but may differ in a detail not shown here. Equal values may be shown once. “Also recorded” adds a separate entry of the source. Read-outs that look alike come from different tables or passages of the source.

Columns and labels:
Cytotoxicity THP-1 (3d) = type: cell-based; conditions: human, THP-1 cells, 25 µM highest concentration tested
C. parvum = C. parvum growth inhibition in HCT-8 cells (follow-up assay, Vicia villosa lectin staining); type: cell-based, Cryptosporidium parvum
Method: Follow-up assays were performed at the University of Vermont (UVM) and Calibr at Scripps Research by infection of the colonic adenocarcinoma cell line HCT-8 (ATCC CCL-244) and staining with the Vicia villosa lectin and DAPI[17],[32]. The FBS concentrations and parasites used for these assays were as indicated; parasite isolates and sources included C. parvum Iowa isolate oocysts purchased from Bunch Grass Farm (Deary, ID), C. parvum Iowa isolate oocysts purchased from the Sterling Laboratory (University of Arizona, Tucson, AZ), wild type C. parvum oocysts provided by Dr. Jenni Zambriski (Virginia Tech, Blacksburg, VA), and the C. hominis TU502 isolate purchased from Dr. Saul Tzipori (Tufts University Cummings School of Veterinary Medicine, North Grafton, MA). […] Amphotericin B (Sigma, catalog# A2942) was added to the culture media at 0.1 to 0.5 µg per mL for the DMC1 dose response assays.

CYP1A2 = target: T1, CYP1A2 (Homo sapiens, UniProt P05177); assay: CYP450 inhibition 1A2; type: in vitro ADME
T1 sequence (P05177 1-516): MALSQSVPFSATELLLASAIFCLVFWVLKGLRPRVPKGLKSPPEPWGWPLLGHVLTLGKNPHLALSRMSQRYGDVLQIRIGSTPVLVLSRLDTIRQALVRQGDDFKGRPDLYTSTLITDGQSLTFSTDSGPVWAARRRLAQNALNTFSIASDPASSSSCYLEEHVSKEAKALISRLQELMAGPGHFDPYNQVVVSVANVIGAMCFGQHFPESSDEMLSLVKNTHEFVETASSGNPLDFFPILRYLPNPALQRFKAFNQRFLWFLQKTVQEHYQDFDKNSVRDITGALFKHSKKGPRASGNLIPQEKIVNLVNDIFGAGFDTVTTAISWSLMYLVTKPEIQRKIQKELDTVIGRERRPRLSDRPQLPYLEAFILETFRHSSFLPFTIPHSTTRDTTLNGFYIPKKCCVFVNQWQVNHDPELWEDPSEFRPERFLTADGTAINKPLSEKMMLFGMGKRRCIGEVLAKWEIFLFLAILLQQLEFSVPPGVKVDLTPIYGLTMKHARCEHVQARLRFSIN

[1] = Cytotoxicity murine L929 (3d); type: cell-based; conditions: mouse, L929 cells, 25 µM highest concentration tested
[2] = test system: 109 off-target enzymes and receptors; assay: Lead Profiling and Adverse Reaction Enzyme off-target panel; type: binding; conditions: 10 µM
Method: In vitro safety profiling studies were conducted by Ricerca Biosciences (Taipei, Taiwan) and WuXi AppTec (Suzhou, China). Ricerca performed a Lead Profiling and Adverse Reaction Enzyme panel of 109 off-target enzymes and receptors. This included the hERG K+ ion channel, which is associated with cardiac tachyarrhythmias, and used a radioligand binding competition format with 10 µM test compound for 1 h at 25 °C. For the enzyme and receptor panel, competitive inhibition at 10 µM of test compound was the most common assay format. The AMES bacterial reverse mutation assay detects point mutations in Escherichia coli and Salmonella typhimurium as an indicator of mutagenic activity. Bacterial strains were obtained from Molecular Toxicology (Boone, NC).

[3] = test system: C. parvum intracellular DNA synthesis; assay: EdU incorporation DNA replication assay; type: cell-based, Cryptosporidium parvum; conditions: 2 × EC90 = 0.42 µM
Method: The invasion assay, DNA replication assay, asexual to sexual stage conversion, and time-kill curve assays were performed using fluorescence microscopy to enumerate parasites and host cell nuclei. Staining protocols are individually described for each assay. Unless noted otherwise, the details of image acquisition were as follows. An inverted Nikon Eclipse Ti2000 microscope with an automated stage and Perfect Focus was used with NIS-Elements Advanced Research software (Nikon, USA, version 4.30.01) to image the wells. The microscope was programmed to focus on the center of each well and then take a 3 × 3 composite image per well using a 20 × (0.45 NA) objective. Images were exported as .tiff files and parasites and host nuclei counted using a custom macro on ImageJ (National Institutes of Health, version 1.52a). Data were analyzed using Microsoft Excel and GraphPad Prism (version 6.01). Measurement of DNA replication was used as a surrogate marker of Cryptosporidium development within HCT-8 cells. […] Images were acquired by focusing on the parasite focal plane, which is on top of the host cell monolayer, using a ×40 objective (0.7 NA) and EdU and lectin numbers were quantified using ImageJ software.

CYP3A4 = CYP3A4 (Homo sapiens, UniProt P08684); assay: CYP450 inhibition 3A4; type: in vitro ADME
Sequence of CYP3A4 (P08684 whole entry): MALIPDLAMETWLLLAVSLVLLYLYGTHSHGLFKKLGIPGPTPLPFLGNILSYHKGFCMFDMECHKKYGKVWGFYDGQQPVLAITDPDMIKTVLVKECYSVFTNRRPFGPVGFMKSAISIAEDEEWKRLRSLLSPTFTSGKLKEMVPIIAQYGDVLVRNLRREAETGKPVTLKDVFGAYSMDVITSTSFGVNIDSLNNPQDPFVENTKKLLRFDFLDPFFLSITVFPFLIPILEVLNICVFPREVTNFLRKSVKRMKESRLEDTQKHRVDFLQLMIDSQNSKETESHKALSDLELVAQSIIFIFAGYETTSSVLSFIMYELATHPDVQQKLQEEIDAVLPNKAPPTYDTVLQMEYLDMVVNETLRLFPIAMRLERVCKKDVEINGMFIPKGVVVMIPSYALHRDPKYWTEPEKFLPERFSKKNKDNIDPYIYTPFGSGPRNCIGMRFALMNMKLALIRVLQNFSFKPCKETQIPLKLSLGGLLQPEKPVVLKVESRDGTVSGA

Compound: CC1(C)OB(O)c2cc(NC(=O)c3ccc(-n4cccn4)cc3Cl)ccc21 [AN7973]
- IC50 at 3 d (Cytotoxicity THP-1 (3d)): > 25000 nM
- EC50 (C. parvum; Bunch Grass Farm (BGF) C. parvum Iowa isolate, HCT-8 cells, 48 h exposure, read-out: EC50): 130 nM
- EC50 (C. parvum; Cryptosporidium parvum, HCT-8, in Vicia villosa, 48 h, Bunch Grass Farm (BGF) C. parvum Iowa isolate, HCT-8 cells, 48 h exposure, read-out: EC50): 130 to 430 nM
- EC50 (C. parvum; Cryptosporidium parvum, HCT-8, in Vicia villosa, Iowa (BGF, 10%FBS), HCT-8, single replicates, unit inferred, read-out: In vitro efficacy (Fig 2b, EC50)): 116 nM
- EC50 (C. parvum; Cryptosporidium parvum, HCT-8, in Vicia villosa, read-out: In vitro efficacy (Fig 2b, EC50)): 363 nM
- EC90 (C. parvum; Cryptosporidium parvum, in Vicia villosa, BGF Iowa isolate, HCT-8): 210 nM
- EC50 (C. parvum; Field isolate (2%FBS), HCT-8, single replicates, unit inferred, read-out: In vitro efficacy (Fig 2b, EC50)): 226 nM and 231 nM and 673 nM and 304 nM
- EC50 (C. parvum; Iowa (BGF, 2%FBS), HCT-8, single replicates, unit inferred, read-out: In vitro efficacy (Fig 2b, EC50)): 459 nM and 606 nM and 233 nM and 334 nM
- EC50 (C. parvum; Iowa (BGF, 10%FBS), HCT-8, single replicates, unit inferred, read-out: In vitro efficacy (Fig 2b, EC50)): 163 nM and 128 nM
- EC50 (C. parvum; Iowa (Sterling Lab, 2%FBS), HCT-8, single replicates, unit inferred, read-out: In vitro efficacy (Fig 2b, EC50)): 412 nM and 206 nM and 290 nM and 456 nM and 232 nM
- % inhibition, 0 - 48 h V. villosa lectin (asexual) (C. parvum; log [AN7973] 0.22): 97.86% and 96.89%
- % inhibition, 0 - 48 h V. villosa lectin (asexual) (C. parvum; log [AN7973] 0.52): 97.05% and 95.66%
- % inhibition, 0 - 48 h V. villosa lectin (asexual) (C. parvum; log [AN7973] 0.70): 95.89% and 94.55%
- % inhibition, 0 - 48 h V. villosa lectin (asexual) (C. parvum; log [AN7973] 1.00): 95.12% and 93.55%
- % inhibition, 0 - 48 h V. villosa lectin (asexual) (C. parvum; log [AN7973] -0.25): 95.71% and 93.12%
- % inhibition, 0 - 48 h V. villosa lectin (asexual) (C. parvum; log [AN7973] -0.73): 85.80% and 82.68%
- % inhibition, 0 - 48 h V. villosa lectin (asexual) (C. parvum; log [AN7973] -1.69): -8.97% and -7.81%
- % inhibition, 0 - 48 h V. villosa lectin (asexual) (C. parvum; log [AN7973] -2.16): -1.87% and -6.19%
- inhibition at 10 µM (CYP1A2): 1%
- IC50 at 3 d [1]: > 25000 nM
- In vitro Receptor Panel (109 targets) [2]: Negative; also recorded: no significant findings
- effect on intracellular DNA synthesis (EdU incorporation) [3]: arrested new DNA synthesis
- inhibition at 10 µM (CYP3A4): 1%
